Measured values reported in paper PMC3610872, “Full and Partial Agonists of Thromboxane Prostanoid Receptor Unveil Fine Tuning of Receptor Superactive Conformation and G Protein Activation” (PLoS ONE, 2013).
Substitutions are numbered along the chain they refer to. Marks after values point to notes of the source that are not given here.

How the values were obtained:
WT human TP receptor = biological target: T1, WT human TP receptor (Homo sapiens, UniProt P21731); test: [3H]SQ29,548 radioligand binding (mixed-type and heterologous competition), WT receptor; conditions: HEK293 cells, value ±%CV
T1 construct: expressed in transfected cells; host or cells: HEK293
T1 sequence (P21731 1-343): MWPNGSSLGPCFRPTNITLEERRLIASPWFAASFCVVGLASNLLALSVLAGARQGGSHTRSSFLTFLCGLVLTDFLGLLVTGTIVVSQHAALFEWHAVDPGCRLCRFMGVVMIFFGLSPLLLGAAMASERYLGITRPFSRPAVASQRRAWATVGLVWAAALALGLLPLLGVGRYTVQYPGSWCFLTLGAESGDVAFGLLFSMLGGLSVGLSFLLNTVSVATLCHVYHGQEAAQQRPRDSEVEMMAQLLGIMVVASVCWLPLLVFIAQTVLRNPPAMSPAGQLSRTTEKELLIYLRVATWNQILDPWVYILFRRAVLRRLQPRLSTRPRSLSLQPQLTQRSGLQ
Experimental: (§1) Receptor expression and functional activity were monitored 48 hours after transfection. […] Heterologous competition studies involved concentrations of the indicated unlabeled ligands extending from 0.1 nM to 30 µM. After 30 min incubation at 25 °C, the reaction was stopped by aspiration of the medium, cells were washed with ice-cold PBS containing 0.2% (w/v) BSA and lysed in 0.5 N NaOH. Radioactivity was measured by liquid scintillation counting. Binding data were analyzed as described in Data and Statistical Analysis. Quantification of the total labeled inositol phosphates (IP) accumulation was performed using a conventional gravity flow column chromatography, as described previously, [19]. Briefly, the day before the assay, cells were labeled with 0,5 µCi of [myo-2-^3H]inositol (17 Ci/mmol) for 18–20 hours in serum-free, inositol-free DMEM containing 20 mM HEPES buffer, pH 7.4, and 0.5% (w/v) Albumax I. The day of the assay, media was replaced with serum-free, inositol-free DMEM containing 25 mM LiCl and cells stimulated for 30 min with the indicated agonists. After removal of the medium, cells were lysed with 10 mM formic acid and lysates were applied onto an anion exchange AG 1X-8 column, formate form, 200–400 mesh. The total IP fraction was then eluted with 2 M ammonium formate/formic acid buffer at pH 5 and radioactivity determined by liquid scintillation counting. Rescue experiments were performed essentially as above, except for a 18 hours incubation step with 1 µΜof SQ29,584 followed by its removal by washing three times with ice-cold PBS containing 1 mM MgCl2 and 0.1 mM CaCl2 before starting the experiment.
(§2) All average results are presented as mean±S.E. When indicated, ANOVA followed by post-hoc test for multiple comparisons was performed. Data from radioligand binding were evaluated by a nonlinear, least-squares curve-fitting procedure using GraphPad Prism version 4, implemented with the n-ligand m-binding site model, as described in the LIGAND computer program. Concentration-response curves were evaluated using Prism 4, which use the four parameters logistic model as described in the ALLFIT program. Parameter errors are all expressed in percentage coefficient of variation (%CV) and calculated by simultaneous analysis of at least two different independent experiments performed in duplicate or triplicate. Parameter comparison has been performed on the base of the F test for extra sum of square principle. All curves shown are computer generated.
(§3) Thus, transfection conditions were adjusted to secure equivalent levels of receptor expression for WT and mutants as previously described, [17], [19]. […] All the experiments were conducted within this range of receptor expression, if not specified differently.

[1] = biological target: T2, E129/240V double mutant human TP receptor (Homo sapiens, UniProt P21731, E129V/E240V); test: [3H]SQ29,548 radioligand binding (mixed-type), E129/240V double mutant; conditions: HEK293 cells, no Gαq, before SQ29,548 rescue, value ±%CV
T2 construct: expressed in transfected cells; host or cells: HEK293
T2 sequence (P21731 1-343 E129V/E240V): T1 sequence (P21731 1-343) with E129V, E240V
Experimental: Receptor expression and functional activity were monitored 48 hours after transfection. […] Heterologous competition studies involved concentrations of the indicated unlabeled ligands extending from 0.1 nM to 30 µM. After 30 min incubation at 25 °C, the reaction was stopped by aspiration of the medium, cells were washed with ice-cold PBS containing 0.2% (w/v) BSA and lysed in 0.5 N NaOH. Radioactivity was measured by liquid scintillation counting. Binding data were analyzed as described in Data and Statistical Analysis. Quantification of the total labeled inositol phosphates (IP) accumulation was performed using a conventional gravity flow column chromatography, as described previously, [19]. […] The total IP fraction was then eluted with 2 M ammonium formate/formic acid buffer at pH 5 and radioactivity determined by liquid scintillation counting. […]
All average results are presented as mean±S.E. When indicated, ANOVA followed by post-hoc test for multiple comparisons was performed. Data from radioligand binding were evaluated by a nonlinear, least-squares curve-fitting procedure using GraphPad Prism version 4, implemented with the n-ligand m-binding site model, as described in the LIGAND computer program. Concentration-response curves were evaluated using Prism 4, which use the four parameters logistic model as described in the ALLFIT program. […]

[2] = biological target: T3, E240V mutant human TP receptor (Homo sapiens, UniProt P21731, E240V); test: [3H]SQ29,548 radioligand binding (mixed-type), E240V mutant; conditions: HEK293 cells, value ±%CV
T3 construct: expressed in transfected cells; host or cells: HEK293
T3 sequence (P21731 1-343 E240V): T1 sequence (P21731 1-343) with E240V
Experimental: as §1, with “Rescue experiments were performed essentially as above, except for a 18 hours incubation step with 1 µΜof SQ29,584 followed by its removal by washing three times with ice-cold PBS containing 1 mM MgCl2 and 0.1 mM CaCl2 before starting the experiment.” left out
as §2, with “Parameter comparison has been performed on the base of the F test for extra sum of square principle. All curves shown are computer generated.” left out

[3] = biological target: T4, E129V mutant human TP receptor (Homo sapiens, UniProt P21731, E129V); test: [3H]SQ29,548 radioligand binding (mixed-type and heterologous competition), E129V mutant; conditions: HEK293 cells, E129V, value ±%CV
T4 construct: expressed in transfected cells; host or cells: HEK293
T4 sequence (P21731 1-343 E129V): T1 sequence (P21731 1-343) with E129V
Experimental: as §1, §2, §3

## O=C(O)CCC/C=C\C[C@@H]1[C@H](CNNC(=O)Nc2ccccc2)[C@@H]2CC[C@H]1O2 [[^3H]SQ29,548, [5,6-^3H]SQ29,548]
WT human TP receptor; Gαq 3x
  Bmax: 0.90±46 pmol/mg prot
WT human TP receptor; Gαq 5x
  Bmax: 0.95±39 pmol/mg prot
WT human TP receptor; no Gαq cotransfection
  Bmax: 0.44±32 pmol/mg prot
[1]
  Bmax: 0.04±68 ^b pmol/mg prot
[2]; Gαq 3x
  Bmax: 0.65±52 pmol/mg prot
[2]; Gαq 5x
  Bmax: 0.49±34 pmol/mg prot
[2]; no Gαq cotransfection
  Bmax: 0.97±31 pmol/mg prot
[3]; Gαq 3x
  Bmax: 0.38±21 pmol/mg prot
[3]; Gαq 5x
  Bmax: 0.39±30 pmol/mg prot
[3]; no Gαq cotransfection
  Bmax: 0.53±16 pmol/mg prot
